Experimental data published in patent publication US20240247029A1, “INTERLEUKIN-1 RECEPTOR MODULATORS AND USES THEREOF” (VALORISATION HSJ, LIMITED PARTNERSHIP, priority 2020, published 2024).

Columns and labels:
[1] = system: IL-1β-induced NF-κB signaling in HEK-Blue IL-33/IL-1β cells; assay: NF-κB QUANTI-Blue assay; format: cell-based; details: Kineret 1.0 mg/mL, 30 min pretreatment, IL-1β 100 ng/ml
Protocol: FIG. 3 is a graph showing the effects of peptides 1 and 2 on IL-1β-induced NF-κB signaling in HEK-Blue cells as quantified in the QUANTI-blue assay. After pre-incubation with peptide or vehicle, HEK-Blue cells were stimulated with IL-1β for 24 h, and secreted alkaline phosphatase activity was spectroscopically detected as a reporter product from the transcription of the NF-κB gene. Data shown represents the average of 2 experiments (each with n=4 per treatment group): ****p<0.0001 compared to group treated only with IL-1β.
HEK-Blue IL-33/IL-1β cells (InvivoGen) were respectively pretreated with peptides 1 and 2 (10^−6 M), or Kineret (1.0 mg/mL) for 30 min, followed by treatment with a constant concentration of […] (100 ng/ml), and incubation at 37° C. for 4 h. Levels of secreted alkaline phosphatase in cell culture supernatant were determined using the QUANTI-Blue assay, according to the manufacturer's instructions (InvivoGen). Alkaline phosphatase activity was assessed by measuring the optical density (OD) at 620-655 nm with an EnVision Multilabel micro plate reader (PerkinElmer, Waltham, MA). Data are representative of 3 experiments (each with n=4 per treatment group).

IL-1β gene expression = assay: qPCR of IL-1β gene expression in RAW 264.7 macrophages; format: cell-based; details: peptide 10^−6 M, 30 min pre-incubation, IL-1β stimulation, RAW 264.7 mouse macrophages
Protocol: (§1) FIGS. 4A and 4B are graphs showing the results of qPCR analysis of IL-1β (FIG. 4A) and COX-2 (FIG. 4B) gene expression within lysates from RAW 264.7 mouse macrophage cells after exposure to peptides 1 and 2 (10^-6 M) or Kineret (1 mg/mL) followed by […] incubation overnight. Results represent an average of 3 independent experiments (each with n=4 per treatment group) and are expressed as a fold-change of the non-stimulated control: *p<0.05, **p<0.01 compared to group treated only with IL-1β, and 18S rRNA as internal control. Treatment groups that are not labeled with asterisks are statistically non-significant compared to group treated only with IL-1β.;
(§2) RAW Blue cells were purchased from InvivoGen® (San Diego, CA), used at passages under 15, and cultured in DMEM growth medium supplemented with 10% serum, 50 U/mL penicillin and […] zeocin. Cells were grown in regular conditions (37° C., 5% CO2), serum starved overnight, and treated with 100 ng/ML IL-1β for 4 h. Cells were respectively pre-incubated for 30 min with peptides 1 and 2 (10^−6 M) or Kineret® (1.0 mg/mL) to reach equilibrium prior to the experiments (n=4 each treatment). Cells were harvested and incubated for 5 min in RIBOzol® (AMRESCO). RNA was extracted according to manufacturer's protocol and RNA concentration and integrity were measured with a NanoDrop® 1,000 spectrophotometer. A total of 500 ng of RNA was used to synthesize cDNA using iScript Reverse Transcription SuperMix® (Bio-Rad, Hercules, CA). Primers (Table 1) were designed using National Center for Biotechnology Information Primer Blast. Quantitative gene expression analysis was performed on Stratagene® MXPro3000 (Stratagene) with SYBR Green Master Mix (Bio-Rad). Gene expression levels were normalized to 18S universal primer (Ambion Life Technology, Burlington ON, Canada). Genes analyzed include […] and PTGHS2 [Prostaglandin H synthetase 2 or cyclooxygenase-2 (COX-2)]. Data are representative of 3 experiments (each with n=4 per treatment group).

[2] = system: COX-2 (PTGHS2) gene expression; assay: qPCR of COX-2 gene expression in RAW 264.7 macrophages; format: cell-based; details: peptide 10^−6 M, 30 min pre-incubation, IL-1β stimulation, RAW 264.7 mouse macrophages
Protocol: as §1, §2

[3] = system: IL-1β-induced phosphorylation of JNK; assay: IL-1β-induced JNK phosphorylation, Western blot, RAW Blue cells; format: cell-based; details: peptide 10^−6 M 30 min, then IL-1β 15 min
Protocol: (§3) FIGS. 5A-C are graphs showing the effects of peptides 1 and 2 on IL-1β-induced phosphorylation of p38 (FIG. 5A), JNK (FIG. 5B), and ROCK2 (FIG. 5C). Graphical representations of band density analysis of Western Blots are shown as fold activation compared to control. RAW Blue cells were pretreated with peptides 1 and 2 (10^−6 M), Kineret (1 mg/mL), or vehicle for 30 min and then stimulated with IL-1β for 15 min. Results shown are the average of 3 independent experiments: *p<0.05, ** p<0.01, ***p<0.001 compared to group treated only with IL-1β. Treatment groups that are not labeled with asterisks are statistically non-significant compared to group treated only with IL-1β.

timed-pregnant CD-1 mice = assay: LPS-induced preterm birth model in mice; format: in vivo, mouse; details: 2 mg/kg/day subcutaneous, LPS 10 μg intraperitoneal on G16.5; for PTB rate: delivery before G18.5, LPS alone ˜80%
Protocol: FIG. 6 is a graph showing the effects of peptides 1 and 2 on prevention of PTB. In brief, pregnant dams on day 16.5 of gestation (G16.5) were subcutaneously pretreated with peptides 1 and 2 (2 mg/kg/day subcutaneous injections) or vehicle, followed by LPS (10 μg intraperitoneal injection), and observed for delivery of pups. A dam was considered as delivering preterm if at least one pup was delivered before G18.5. n=4-5 dams per treatment group.
Timed-pregnant CD-1 mice at 16.5 days of gestation (G16.5) were anesthetized with 2% isoflurane and received an intraperitoneal injection of lipopolysaccharide (LPS, n=4 per group, a single dose of 10 ug) (Nadeau-Vallée et al., 2015; Kakinuma et al., 1997). A dosage of 2 mg/kg/day of peptides 1 and 2 or vehicle was respectively injected subcutaneously in the neck, every 12h until delivery. On G16.5, a dose of 1 mg/kg was injected 30 min before stimulation with LPS (to allow distribution of drugs to target tissues) and 1 mg/kg was injected 12h after stimulation (n=4 each treatment). Mice delivery was assessed every hour until term (G19-G19.5). A mouse was considered as delivering prematurely if the first pup was delivered earlier than G18.5. Data was analyzed using Prism 7 (GraphPad Software, San Diego, CA, USA) with one-way ANOVA and Dunnett's test for multiple comparisons. Outliers were detected using Grubb's test. Results were treated as significant when p was <0.05 and expressed as mean+SEM.
From the results of the in vitro screens, a subset of six (3R,4S)-β-substituted-Agl^3 peptides (e.g., 2c, 2d, 2f, 2l, 2n, 2q) were selected for examination in vivo in a CD-1 mouse model of preterm birth (PTB), and a Sprague Dawley rat model of oxygen-induced retinopathy (OIR). In the PTB model, timed-pregnant CD-1 dams were pre-treated with peptides 1 or 2, or PBS vehicle, and then injected with LPS on day 16.5 of gestation (G16.5). A bacterial cell wall component that contains PAMPs, LPS is known to reliably induce labor via pro-inflammatory pathways implicating IL-1 (Hirsch and Wang 2005). The CD-1 mice have a gestation of 19.2 days (Goupil et al. 2010). Dams that delivered at least one pup before G18.5 were considered to have given birth prematurely. In the absence of peptide, LPS alone induced premature labor in ˜80% of treated mice (FIG. 6). Peptide 1 and triazoles 2 l and 2q, all reduced the PTB rate to ˜20%.

Sprague Dawley rat pups = assay: Oxygen-induced retinopathy (OIR) model; format: in vivo; details: 2 mg/kg/day intraperitoneal twice daily, 80% oxygen P5 to P10; for extent of vaso-obliteration (percentage of total retinal area): vehicle ˜30%
Description: Experiments in the oxygen-induced retinopathy rodent model were preformed according to the method described previously (Geranurimi et al. 2019), and summarized below.
Animals. Two-day-old (P2) Sprague Dawley rat pups and their mothers were ordered from Charles River (Raleigh, SC, USA) and acclimatized for 3 days in standard conditions. All procedures and protocols involving the use of the rats were approved by the Animal Care Committee of the research center of Hopital Maisonneuve-Rosemont and are in accordance with the Statement for the Use of Animals in Ophthalmic and Vision Research approved by the Association for Research in Vision and Ophthalmology, and guidelines established by the Canadian Council on Animal Care.
Oxygen-Induced Retinopathy in Sprague Dawley Rats. The 80% oxygen model of retinopathy was conducted as previously described (Geranurimi et al. 2019). Briefly, litters of P5 pups and their mothers were kept in a controlled 80% oxygen environment until P10. The pups were respectively injected intraperitoneally twice daily with PBS vehicle (20 μL per injection), peptide 1 or derivatives 2 (titrated to a daily dose of 2 mg/kg/day). Control litters were kept under normal air atmosphere and standard conditions. On P10, pups were euthanized by decapitation under 2% isoflurane anesthesia. Eyes were enucleated and fixed in 4% paraformaldehyde, then stored at 4° C. in phosphate-buffered saline (PBS) until further processing.
Retinal Flatmount and Immunohistochemistry. The fixed eyes were dissected, and the obtained retinas were incubated with antibodies and mounted onto slides as previously described in (Geranurimi et al. 2019). Briefly, the cornea and lens were removed from the eyes, and the retina gently removed from the underlying sclera-choroid-retinal pigmented epithelium (RPE) complex. Retinas were treated for 1h with blocking solution [1% bovine serum albumin (BSA), 1% normal goat serum, 0.1% Triton X-100 and 0.05% Tween-20 in PBS], and then incubated overnight with lectin and Iba-1 primary antibody, followed by Alexa-594-conjugated secondary antibody for 2 h. Retinas were then mounted onto microscope slides under coverslips with anti-fade mounting medium.
Microscopy. Retinal flatmounts were imaged using the Zeiss Axiolmager Z2 and the MosaiX feature of the AxioVision software as previously described (Geranurimi et al. 2019). Representative images after Iba-1 staining were taken using a laser scanning confocal microscope (Olympus IX81 with Fluoview FV1000 Scanhead) using the Fluoview Software at 30× magnification.
Quantification and Data Analysis. The FIJI software was used to quantify the area of vaso-obliteration in each retina, expressed as a percentage of the area of the whole retina. The number of Iba-1-positive cells was counted using the cell counter plug-in in the FIJI software, and the average of cell counts in 4 fields per retina was calculated. Data was analyzed using Prism 7 with one-way ANOVA and the Dunnett's test for multiple comparisons. Results were treated as significant when p was less than 0.05 and expressed as mean+SEM.

[4] = system: IL-1β-induced phosphorylation of p38; assay: IL-1β-induced p38 phosphorylation, Western blot, RAW Blue cells; format: cell-based; details: peptide 10^−6 M 30 min, then IL-1β 15 min
Protocol: as §3

[5] = system: IL-1β-induced phosphorylation of ROCK2; assay: IL-1β-induced ROCK2 phosphorylation, Western blot, RAW Blue cells; format: cell-based; details: peptide 10^−6 M 30 min, then IL-1β 15 min
Protocol: as §3

Substance | IL-1β pro-inflammatory gene expression (qPCR) (IL-1β gene expression) | COX-2 pro-inflammatory gene expression (qPCR) [2] | retinal microglial morphology/activation (Iba-1 staining) (Sprague Dawley rat pups) | extent of vaso-obliteration (percentage of total retinal area) (Sprague Dawley rat pups) [%] | also measured
Kineret®: the recombinant IL-1 receptor antagonist, Kineret® (anakinra) | – | – | – | – | effect on IL-1β-induced NF-κB signaling (secreted alkaline phosphatase) [1]: blocked
[(3R,4S)-4-(4′-(1,1-Dimethyl)aminomethyltriazolyl)Agl^3]-1 [2o] | strong inhibitory effects | strong inhibitory effects | – | – | –
[(3R,4S)-4-(4′-Hydroxymethyltriazolyl)Agl^3]-1 [2q] | strong inhibitory effects | strong inhibitory effects | ramified and branched microglia | ~20 | IL-1β-induced activation (phosphorylation) of JNK [3]: inhibited; PTB rate (timed-pregnant CD-1 mice): ~20%
[(3R,4S)-4-(4′-Phenyltriazolyl)Agl^3]-1 [2l] | – | – | ramified and branched microglia | ~20 | IL-1β-induced p38 phosphorylation [4]: inhibiting; IL-1β-induced activation (phosphorylation) of JNK [3]: inhibited; IL-1β-induced ROCK2 phosphorylation [5]: inhibitory activity; PTB rate (timed-pregnant CD-1 mice): ~20%; protective effect against vaso-obliteration (Sprague Dawley rat pups): tendencies to have a stronger protective effect than peptide 1
[(3R,4S)-4-(4′-m-Aminophenyltriazolyl)Agl^3]-1 [2n] | – | – | ramified and branched microglia | ~20 | effects on PTB (timed-pregnant CD-1 mice): Neither N-oxyphthalimide 2f nor 4-m-aminophenyltriazole 2n exhibited effects on PTB
[(3R,4S)-4-(4′-p-Methylphenyltriazolyl)Agl^3]-1 [2m] | strong inhibitory effects | strong inhibitory effects | – | – | –
[(3R,4S)-4-(AcHN)Agl^3]-1 [2i] | without effecting | blocked expression | – | – | IL-1β-induced p38 phosphorylation [4]: inhibiting
[(3R,4S)-4-(H2NO)Agl^3]-1 [2g] | without effecting | blocked expression | – | – | IL-1β-induced ROCK2 phosphorylation [5]: inhibitory activity
[(3R,4S)-4-(PhthO)Agl^3]-1 [2f] | – | – | ramified and branched microglia | ~20 | effects on PTB (timed-pregnant CD-1 mice): Neither N-oxyphthalimide 2f nor 4-m-aminophenyltriazole 2n exhibited effects on PTB
[(3R, 4S)-4-(N3)Agl^3]-1 [2c] | – | – | active amoeboid state | – | protective effect against vaso-obliteration (Sprague Dawley rat pups): no detectable protective effect
[(3S,4S)-4-(NCS)Agl^3]-1 [2d] | – | – | ramified and branched microglia | ~20 | IL-1β-induced p38 phosphorylation [4]: inhibiting; protective effect against vaso-obliteration (Sprague Dawley rat pups): tendencies to have a stronger protective effect than peptide 1
